{
  "source": "patent US20080261911A1",
  "about": "“Uses of diphenyl/diphenylamine carboxylic acids” (priority 2006, published 2008)",
  "key": {"[1]": {"tested_on": "Sp1, Sp3, and Sp4 proteins", "assay": "Western blot of Sp1, Sp3 and Sp4 protein expression in Panc-1 cells", "assay_type": "cell-based", "conditions": "for Sp1, Sp3, and Sp4 protein expression / order of potency for decreased expression of Sp1, Sp3, and Sp4 proteins: 50 μM; for Sp1, Sp3, and Sp4 protein expression: Western blot, vs DMSO"}, "Panc-1 cells": {"tested_on": "Panc-1 cells", "assay": "Cell proliferation assay, Panc-1 cells", "assay_type": "cell-based", "conditions": "for growth of Panc-1 pancreatic cancer cells: different concentrations, 6 days, cell counting", "procedure": "FIGS. 6A-6E show comparative effects of non-steroidal anti-inflammatory drugs on Panc-1 cell proliferation and Sp protein expression. Effects of tolfenamic acid (FIG. 6A), ampiroxicam (FIG. 6B), naproxen (FIG. 6C), and diclofenac sodium (FIG. 6D) on Panc-1 cell proliferation. Panc-1 cells were treated with different concentrations of non-steroidal anti-inflammatory drugs for 6 days, and the number of cells were determined on days 2, 4, and 6 by cell counting techniques. […] Panc-1 cells were treated with DMSO, 150 μM ampiroxicam, 150 μM naproxen, and 50 μM tolfenamic acid for 48 hr, and levels of Sp proteins and the cleaved poly (ADP-ribose) polymerase (PARP) protein were determined in whole cell lysates by Western blot analysis. […] Panc1, Panc28 and L3.6pl cells are seeded in DMEM/F12 media with 5% FBS and treated the next day with either vehicle (DMSO) or with the indicated compounds' concentrations. Cells are counted at the indicated times using a Z1™ COULTER COUNTER® cell counter. Each experiment is carried out in triplicate and results expressed as means ±SD for each determination."}, "[2]": {"tested_on": "VEGF promoter constructs pVEGF1 and pVEGF2", "assay": "VEGF promoter (pVEGF1/pVEGF2) luciferase transactivation in Panc-1 cells", "assay_type": "cell-based", "procedure": "Transfection of Panc-1 cells with pVEGF1 and pVEGF2 and treatment with 50 μM ampiroxicam and tolfenamic acid (FIGS. 2A, 2B) or diclofenac sodium (FIGS. 2C, 2D) with pVEGF1 or pVEGF2 constructs. Cells were transfected with pVEGF1 or pVEGF2 treated with DMSO, 50 μM ampiroxicam, tolfenamic acid, or diclofenac sodium, and luciferase activity determined. Transfection of L3.6pl cells with pVEGF1 (FIG. 2E) or pVEGF2 constructs (FIG. 2F). […] Panc-1 cells were transfected with pVEGF2, treated with 20, 40, 60 or 80 μM ampiroxicam or tolfenamic acid, and luciferase determined. Results presented herein are means ±SE for three separate determinations per treatment group, and significant (p<0.05) decrease in luciferase activity is indicated by an asterisk.\nCells are cultured in 6-well plates in 2 ml of DME/F12 medium supplemented with 5% fetal bovine serum. After 16-20 hr when cells are 50-60% confluent, reporter gene constructs are transfected using LIPOFECTAMINE™ reagent (Invitrogen, Carlsbad, Calif.). The effects of the selective non-steroidal anti-inflammatory drugs on transactivation are investigated in Panc1 and L3.6pl cells co-transfected with different VEGF constructs (500 ng). […] For proteasome inhibitor experiments, cells will be co-treated with 2 μM lactacystin, and for electrophoretic mobility shift assay (EMSA), nuclear extracts from Panc1 and L3.6pl cells are isolated as described, and aliquots will be stored at −80° C. until used (Abdelrahim et al, 2004; Abdelrahim et al, 2005).\nPrevious studies have shown COX-2 inhibitors or small interfering RNAs for Sp proteins decreased vascular endothelial growth factor expression in colon and pancreatic cells (Abdelrahim et al, 2005; Baker et al, 2002; Masferrer et al, 2000; Bouwman et al, 2002). The effects of DMSO, 50 μM tolfenamic acid and 50 μM ampiroxicam on vascular endothelial growth factor expression were initially investigated in Panc-1 cells transfected with the pVEGF1 and pVEGF2 constructs, which contain −2018 to +50 and −131 to +54 VEGF promoter inserts, respectively (FIGS. 2A and 2B)."}, "[3]": {"tested_on": "orthotopically implanted human pancreatic L3.6p1 cancer cells", "assay": "Orthotopic pancreatic tumor model in athymic nude mice", "conditions": "gemcitabine 50 mg/kg", "procedure": "Median tumor volumes (FIG. 8A) and weights (FIG. 8B) in athymic nude mice treated orthotopically with L3.6pl cells, and corn oil (control), tolfenamic acid (25 and 50 mg/kg), and gemcitabine (50 mg/kg) were determined. […] Tumors from the various treatment groups were analyzed for Sp1, Sp3, Sp4, and VEGF protein expression by Western blot analysis. […] Immunostaining is shown for VEGF (FIG. 8D), and CD31 (FIG. 8E). Pancreatic tumor sections from animals treated with solvent (control), gemcitabine (50 mg/kg) and tolfenamic acid (25 and 50 mg/kg) were immunostained with VEGF and CD31 antibodies.\nMale athymic nude mice (NCI-nu) are purchased from the Animal Production Area of the National Cancer Institute Frederick Cancer Research and Development Center, housed and maintained under specific pathogen-free conditions in accordance with current regulations and standards of the United States Department of Agriculture. Injection of L3.6pl cells (with greater than 90% viability is performed as previously described (Bruns et al, 1999). Seven days after implantation of tumor cells into the pancreas of each mouse, five mice are killed to confirm the presence of tumor lesions.\nMice (10 animals per treatment group) are randomized to receive one of the following treatments: (1) thrice weekly oral administrations of vehicle solution which will serve as a control group; (2) thrice weekly oral administrations of at least three non-steroidal anti-inflammatory drugs at doses of 10, 25, and 50 mg/kg/day; (3) twice weekly intraperitoneal injections of 50, 75, and 100 mg/kg/day gemcitabine alone; and (4) combinations of gemcitabine and non-steroidal anti-inflammatory drugs. Mice are sacrificed on day 35 and body weights measured. Primary tumors in the pancreas are excised, measured, weighed. For immunohistochemistry (IHC) and hematoxylin and eosin (H&E) staining procedures, one part of the tumor tissue is fixed in formalin and embedded in paraffin, and another part is embedded in TISSUE-TEK® O.C.T. compound, rapidly frozen in liquid nitrogen, and stored at −70° C. Visible liver metastases are counted with the aid of a dissecting microscope, and the tissues processed for hematoxylin and eosin staining.\nParaffin-embedded tissues are used for identification of Sp proteins, VEGFR2p27 and vascular endothelial growth factor. Tissue sections ([…] thick) are mounted on positively charged SUPERFROST slides (Fischer Scientific, Co, Houston, Tex.) and dried overnight. Sections are deparaffinized in xylene and treated with a graded series of alcohol [100, 95, and 80% ethanol (v/v) in double distilled H2O] and rehydrated in phosphate buffered saline (pH 7.5). Tissues are treated with pepsin (Biomeda) for 15 min at 37° C. and washed with phosphate buffered saline. A positive reaction is visualized by incubating the slides with stable 3,3′-diaminobenzidine for 10-20 min. Sections are rinsed with distilled water, counterstained with Gill's hematoxylin for 1 min, and mounted with UNIVERSAL MOUNT (Research Genetics). […] Tumor sample lysates are also examined by western blot analysis for the same proteins.\nThe potential anti-tumorigenic and anti-angiogenic activity of tolfenamic acid against pancreatic tumors was investigated in an orthotopic athymic nude mouse model. L3.6pl cells were used for this study based on their aggressive growth and production of liver metastases (Bruns et al, 1999; Dubois et al, 1998)."}, "[4]": {"tested_on": "cleaved poly (ADP-ribose) polymerase (PARP) protein", "assay": "Apoptosis: cleaved PARP in Panc-1 cells, Western blot", "assay_type": "cell-based", "conditions": "150 μM, 48 hr", "method": "Cells are washed once with phosphate buffered saline PBS and collected by scraping in 200 μL of lysis buffer [50 mM HEPES, 0.5M sodium chloride, 1.5 mM magnesium chloride, 1 mM EGTA, 10% (v/v) glycerol, 1% Triton X-100, 5 μL/ml of Protease Inhibitor Cocktail (Sigma)]. The lysates from the cells are incubated on ice for 1 hr with intermittent vortexing followed by centrifugation at 40,000 g for 10 min at 4° C. Equal amounts of protein (60 μg) from each treatment group are diluted with loading buffer, boiled and loaded onto 10 and 12.5% SDS-polyacrylamide gel. […] Samples are electrophoresed, transferred to membranes, and proteins detected by incubation with polyclonal primary antibodies Sp1, Sp3, Sp4, HDAC, VEGF (a-20), c-Met, surviving, VEGF, cleaved PARP, and β-tubulin (H-235) followed by blotting with appropriate horseradish peroxidase-conjugated secondary antibody as previously described (Abdelrahim et al, 2004). After autoradiography, band intensities are determined by a scanning laser densitometer (Sharp Electronics Corporation, Mahwah, N.J.) using ZERO-D SCANALYTICS software (Scanalytics Corporation, Billerica, Mass.)."}, "[5]": {"tested_on": "Sp1, Sp3 and Sp4 in colon cancer cells", "conditions": "cited from earlier work"}, "[6]": {"conditions": "bi-weekly intraperitoneal from day 7, sacrificed day 35"}},
  "data": [
    {"smiles": "COc1ccc2c(c1)c(CC(=O)OCC(=O)O)c(C)n2C(=O)c1ccc(Cl)cc1", "note": "[acemetacin]", "values": [
      {"measurement": "Sp1, Sp3, and Sp4 protein expression", "setting": "[1]; 48 hr", "value": "had no effect"}
    ]},
    {"smiles": "O=C(O)Cc1ccccc1Nc1c(Cl)cccc1Cl", "note": "[diclofenac sodium]", "values": [
      {"measurement": "relative potency in Panc-1 growth inhibition", "setting": "Panc-1 cells; compared with ampiroxicam and naproxen", "value": "exhibited higher potencies"},
      {"measurement": "growth of Panc-1 pancreatic cancer cells", "setting": "Panc-1 cells", "value": "decreased growth of Panc-1 pancreatic cancer cells"},
      {"measurement": "luciferase activity, pVEGF1 and pVEGF2 constructs", "setting": "[2]; Panc-1 cells, 50 μM", "value": "decreased transactivation"},
      {"measurement": "order of potency for decreased expression of Sp1, Sp3, and Sp4 proteins", "setting": "[1]; 48 hr", "value": "tolfenamic acid>diclofenac˜diflunisal"},
      {"measurement": "Sp1, Sp3, and Sp4 protein expression", "setting": "[1]; 48 hr", "value": "decreased expression of Sp1, Sp3, and Sp4 proteins"}
    ]},
    {"smiles": "O=C(O)c1cc(-c2ccc(F)cc2F)ccc1O", "note": "[diflunisal]", "values": [
      {"measurement": "order of potency for decreased expression of Sp1, Sp3, and Sp4 proteins", "setting": "[1]; 48 hr", "value": "tolfenamic acid>diclofenac˜diflunisal"},
      {"measurement": "Sp1, Sp3, and Sp4 protein expression", "setting": "[1]; 48 hr", "value": "decreased expression of Sp1, Sp3, and Sp4 proteins"}
    ]},
    {"smiles": "O=C(O)CCC(=O)c1ccc(-c2ccccc2)cc1", "note": "[fenbuten]", "values": [
      {"measurement": "Sp1, Sp3, and Sp4 protein expression", "setting": "[1]; 48 hr", "value": "had no effect"}
    ]},
    {"smiles": "Nc1ccn([C@@H]2O[C@H](CO)[C@@H](O)C2(F)F)c(=O)n1", "note": "[gemcitabine, 2′, 2′-difluorodeoxycitidine]", "values": [
      {"measurement": "immunostaining for vascular endothelial growth factor in tumor sections", "setting": "[3]", "value": "relatively greater staining"},
      {"measurement": "Body Weight Median", "setting": "[3]; [6]", "value": 24, "unit": "g"},
      {"measurement": "Incidence Liver metastasis", "setting": "[3]; [6]", "value": "did not affect the incidence of liver metastasis"},
      {"measurement": "Pancreatic Tumor Incidence (positive mice/mice injected)", "setting": "[3]; [6]", "value": "10/10"},
      {"measurement": "Tumor Volume Median", "setting": "[3]; [6]", "value": 1186.8, "unit": "mm^3"},
      {"measurement": "Tumor Weight Median", "setting": "[3]; [6]", "value": 0.8, "unit": "g"},
      {"measurement": "Incidence Liver metastasis", "setting": "[3]; bi-weekly intraperitoneal from day 7, sacrificed day 35, listed as Gemcitabine", "value": "5/10"}
    ]},
    {"smiles": "CC(C)Cc1ccc(C(C)C(=O)O)cc1", "note": "(centres unmarked) [ibuprofen]", "values": [
      {"measurement": "Sp1, Sp3, and Sp4 protein expression", "setting": "[1]; 48 hr", "value": "had no effect"}
    ]},
    {"smiles": "CC(=O)N[C@@H](CSC(=O)[C@]1([C@@H](O)C(C)C)NC(=O)[C@H](C)[C@@H]1O)C(=O)O", "note": "[lactacystin]", "values": [
      {"measurement": "effect on tolfenamic acid-decreased transactivation of pVEGF2", "setting": "[2]; Panc-1 cells co-treated with tolfenamic acid and proteasome inhibitor", "value": "blocked in cells co-treated with lactacystin"},
      {"measurement": "effect on tolfenamic acid-induced Sp1, Sp3, and Sp4 protein degradation", "setting": "[1]; 2 μM lactacystin plus 50 μM tolfenamic acid, 48 hr", "value": "significant inhibition of Sp1, Sp3, and Sp4 protein degradation"}
    ]},
    {"smiles": "N#Cc1ccc(C(c2ccc(C#N)cc2)n2cncn2)cc1", "note": "[letrozole]", "values": [
      {"measurement": "Sp1, Sp3, and Sp4 protein expression", "setting": "[1]; 48 hr", "value": "had no effect"}
    ]},
    {"smiles": "COc1ccc2cc([C@H](C)C(=O)O)ccc2c1", "note": "[naproxen]", "values": [
      {"measurement": "growth of Panc-1 pancreatic cancer cells", "setting": "Panc-1 cells", "value": "decreased growth of Panc-1 pancreatic cancer cells"},
      {"measurement": "Sp1, Sp3, and Sp4 protein expression", "setting": "[1]; 48 hr", "value": "had no effect"},
      {"measurement": "Sp protein degradation", "setting": "[1]; 150 μM, 48 hr (concentration of comparable growth inhibition)", "value": "only tolfenamic acid induced protein degradation"},
      {"measurement": "poly (ADP-ribose) polymerase cleavage", "setting": "[4]", "value": "only tolfenamic acid induced protein degradation and poly (ADP-ribose) polymerase cleavage"}
    ]},
    {"smiles": "CS(=O)(=O)Nc1ccc([N+](=O)[O-])cc1Oc1ccccc1", "note": "[nimesulide]", "values": [
      {"measurement": "levels of Sp1, Sp4 and Sp3", "setting": "[5]", "value": "decreased levels of Sp1 and Sp4 (but not Sp3)"}
    ]},
    {"smiles": "Cc1ccc(C(=O)c2ccc(CC(=O)O)n2C)cc1", "note": "[tolmetin]", "values": [
      {"measurement": "Sp1, Sp3, and Sp4 protein expression", "setting": "[1]; 48 hr", "value": "had no effect"}
    ]}
  ]
}
